Source: the NIST ThermoML archive (doi:10.1021/je900137r)

Experiment: molar heat capacity at constant volume
Settings: Liquid, Vacuum adiabatic calorimetry

CCC [propane]
Settings | molar heat capacity at constant volume [J/K/mol]
101.14 K, 5078 kPa | 59.59
102.31 K, 9415 kPa | 59.63
104.09 K, 13618 kPa | 59.63
105.25 K, 15961 kPa | 59.93
107.01 K, 19580 kPa | 59.8
108.15 K, 22430 kPa | 60.17
109.89 K, 26296 kPa | 60.2
111.02 K, 28556 kPa | 60.44
124.99 K, 4945 kPa | 59.16
126.59 K, 8062 kPa | 59.47
127.81 K, 10414 kPa | 59.44
129.39 K, 13480 kPa | 59.66
130.6 K, 15739 kPa | 59.6
132.17 K, 18723 kPa | 60.02
133.36 K, 20943 kPa | 60
134.92 K, 23869 kPa | 60.12
136.1 K, 26024 kPa | 60.14
137.64 K, 28865 kPa | 60.52
138.81 K, 30978 kPa | 60.43
149.78 K, 4666 kPa | 59.78
150.88 K, 6488 kPa | 59.62
152.48 K, 9113 kPa | 59.99
153.59 K, 10968 kPa | 60.1
155.17 K, 13482 kPa | 60.14
156.27 K, 15303 kPa | 60.05
157.84 K, 17768 kPa | 60.44
158.93 K, 19535 kPa | 60.5
160.49 K, 21973 kPa | 60.63
161.58 K, 23733 kPa | 60.93
163.12 K, 26095 kPa | 60.76
164.21 K, 27828 kPa | 61.2
165.73 K, 30131 kPa | 61.05
166.81 K, 31798 kPa | 61.54
174.72 K, 4244 kPa | 60.48
175.51 K, 5348 kPa | 60.54
177.36 K, 7916 kPa | 60.58
178.15 K, 9061 kPa | 60.86
179.97 K, 11523 kPa | 61.04
180.77 K, 12700 kPa | 61.22
182.57 K, 15077 kPa | 61.29
183.38 K, 16221 kPa | 61.34
185.16 K, 18570 kPa | 61.57
185.97 K, 19691 kPa | 61.79
187.72 K, 22005 kPa | 62.06
188.54 K, 23141 kPa | 62.12
190.27 K, 25385 kPa | 62.49
191.1 K, 26538 kPa | 62.39
192.81 K, 28708 kPa | 62.66
193.64 K, 29843 kPa | 62.88
195.33 K, 31980 kPa | 62.87
196.16 K, 33063 kPa | 63.39
199.29 K, 3434 kPa | 62.08
200.29 K, 4569 kPa | 62.02
201.88 K, 6487 kPa | 62.05
202.88 K, 7627 kPa | 62.29
204.46 K, 9498 kPa | 62.44
205.45 K, 10675 kPa | 62.72
207.03 K, 12468 kPa | 63.03
208.02 K, 13633 kPa | 63.07
209.59 K, 15407 kPa | 63.29
210.57 K, 16525 kPa | 63.38
212.13 K, 18295 kPa | 63.46
213.11 K, 19392 kPa | 63.48
214.66 K, 21152 kPa | 63.9
215.63 K, 22244 kPa | 63.92
217.18 K, 23972 kPa | 64.21
218.15 K, 25069 kPa | 64.71
219.69 K, 26749 kPa | 64.74
220.66 K, 27850 kPa | 64.89
222.18 K, 29491 kPa | 65.36
223.14 K, 30548 kPa | 65.25
224.67 K, 32203 kPa | 65.68
224.72 K, 3002 kPa | 64.29
225.63 K, 33221 kPa | 66
225.69 K, 3945 kPa | 64.4
227.28 K, 5514 kPa | 64.59
228.26 K, 6458 kPa | 64.54
229.84 K, 8010 kPa | 64.8
230.82 K, 8990 kPa | 65.2
232.38 K, 10480 kPa | 64.79
233.38 K, 11478 kPa | 65.49
234.92 K, 12923 kPa | 65.31
235.92 K, 13904 kPa | 65.71
237.46 K, 15350 kPa | 65.71
238.46 K, 16299 kPa | 66.07
239.99 K, 17746 kPa | 65.96
240.99 K, 18681 kPa | 66.68
242.51 K, 20123 kPa | 66.43
243.5 K, 21054 kPa | 66.99
245.03 K, 22471 kPa | 67.42
246.01 K, 23413 kPa | 67.65
247.54 K, 24804 kPa | 67.75
248.53 K, 25750 kPa | 67.69
249.66 K, 2670 kPa | 66.76
250.04 K, 27105 kPa | 67.7
250.68 K, 3498 kPa | 66.65
251.02 K, 28035 kPa | 68.22
252.25 K, 4769 kPa | 67.25
252.53 K, 29385 kPa | 68.06
253.26 K, 5557 kPa | 67.47
253.52 K, 30287 kPa | 68.63
254.85 K, 6861 kPa | 67.69
255.02 K, 31645 kPa | 68.71
255.85 K, 7667 kPa | 67.82
256 K, 32529 kPa | 69.58
257.44 K, 8938 kPa | 67.87
258.44 K, 9764 kPa | 67.88
260.02 K, 10999 kPa | 68.4
261.02 K, 11824 kPa | 68.53
262.61 K, 13051 kPa | 68.83
263.6 K, 13861 kPa | 69.03
265.2 K, 15091 kPa | 69.38
266.18 K, 15878 kPa | 69.32
267.79 K, 17120 kPa | 69.94
268.76 K, 17881 kPa | 69.68
270.37 K, 19134 kPa | 70.51
271.33 K, 19881 kPa | 70.43
272.95 K, 21136 kPa | 70.81
273.9 K, 21877 kPa | 70.9
275.54 K, 23127 kPa | 70.92
276.18 K, 3327 kPa | 70.24
276.48 K, 23865 kPa | 71.62
276.56 K, 3559 kPa | 70.86
278.12 K, 25101 kPa | 71.49
278.85 K, 5025 kPa | 70.73
279.04 K, 25835 kPa | 72.09
279.23 K, 5297 kPa | 71.29
280.7 K, 27065 kPa | 72.08
281.51 K, 6761 kPa | 71.44
281.61 K, 27786 kPa | 72.29
281.9 K, 7032 kPa | 70.95
283.29 K, 29020 kPa | 72.18
284.18 K, 8508 kPa | 71.57
284.19 K, 29713 kPa | 72.65
284.58 K, 8760 kPa | 71.75
285.87 K, 30962 kPa | 72.47
286.77 K, 31632 kPa | 72.64
286.85 K, 10247 kPa | 71.76
287.26 K, 10490 kPa | 72.25
288.45 K, 32894 kPa | 72.96
289.34 K, 33552 kPa | 73.33
289.52 K, 11964 kPa | 71.92
289.95 K, 12212 kPa | 72.29
292.2 K, 13671 kPa | 72.85
292.64 K, 13928 kPa | 73.17
294.88 K, 15364 kPa | 73.57
295.34 K, 15644 kPa | 73.82
297.56 K, 17055 kPa | 74.47
298.05 K, 17358 kPa | 74.2
300.26 K, 18750 kPa | 74.37
300.73 K, 2939 kPa | 74.37
300.76 K, 19068 kPa | 74.45
301.58 K, 3377 kPa | 74.41
301.67 K, 3419 kPa | 74.62
302.95 K, 20442 kPa | 74.16
303.48 K, 20773 kPa | 74.78
303.54 K, 4354 kPa | 74.77
304.37 K, 4801 kPa | 74.97
304.51 K, 4850 kPa | 74.76
305.65 K, 22131 kPa | 75.52
306.2 K, 22473 kPa | 75.56
306.36 K, 5801 kPa | 74.54
307.19 K, 6235 kPa | 74.97
307.35 K, 6310 kPa | 75.3
308.37 K, 23829 kPa | 76.01
308.94 K, 24172 kPa | 76.12
309.19 K, 7252 kPa | 75.53
310.01 K, 7669 kPa | 75.56
310.22 K, 7778 kPa | 75.78
311.08 K, 25517 kPa | 76.58
311.68 K, 25869 kPa | 76.11
312.04 K, 8706 kPa | 75.83
312.85 K, 9104 kPa | 76.02
313.1 K, 9241 kPa | 76.23
313.82 K, 27203 kPa | 77.38
314.43 K, 27556 kPa | 77.06
314.91 K, 10151 kPa | 75.71
315.69 K, 10543 kPa | 77.05
316 K, 10697 kPa | 76.49
316.58 K, 28887 kPa | 76.95
317.18 K, 29242 kPa | 77.79
317.79 K, 11598 kPa | 77.05
318.56 K, 11984 kPa | 77.31
318.91 K, 12158 kPa | 77.07
319.33 K, 30553 kPa | 77.02
319.67 K, 2142 kPa | 76.76
319.95 K, 30930 kPa | 77.48
320.71 K, 13058 kPa | 77.4
321.3 K, 2771 kPa | 77.58
321.43 K, 13428 kPa | 77.25
321.83 K, 13623 kPa | 76.95
322.1 K, 32227 kPa | 78.59
322.71 K, 3326 kPa | 77.29
322.73 K, 32614 kPa | 78
323.62 K, 14518 kPa | 78.11
324.31 K, 14874 kPa | 77.39
324.35 K, 3977 kPa | 78.06
324.77 K, 15094 kPa | 77.5
324.91 K, 33925 kPa | 78.84
325.78 K, 4543 kPa | 78.25
326.57 K, 15995 kPa | 78.02
327.22 K, 16325 kPa | 78.34
327.42 K, 5191 kPa | 78.96
327.73 K, 16576 kPa | 78.56
328.88 K, 5770 kPa | 78.35
329.52 K, 17472 kPa | 78.67
330.15 K, 17784 kPa | 78.59
330.51 K, 6416 kPa | 78.78
330.7 K, 18059 kPa | 79.38
331.99 K, 6999 kPa | 78.63
332.5 K, 18957 kPa | 79.25
333.09 K, 19244 kPa | 78.85
333.62 K, 7647 kPa | 78.71
333.68 K, 19542 kPa | 80.2
335.12 K, 8240 kPa | 79.2
335.5 K, 20439 kPa | 79.93
336.05 K, 20709 kPa | 79.2
336.7 K, 21027 kPa | 80.28
336.76 K, 8887 kPa | 79.06
338.28 K, 9489 kPa | 80.76
338.52 K, 21926 kPa | 80.26
339.05 K, 22184 kPa | 80.79
339.73 K, 22511 kPa | 80.76
339.92 K, 10135 kPa | 80.44
341.46 K, 10747 kPa | 81.71
341.56 K, 23408 kPa | 80.54
342.07 K, 23667 kPa | 81.31
342.79 K, 24013 kPa | 81.23
343.1 K, 11393 kPa | 80.84
344.62 K, 24907 kPa | 81.87
344.67 K, 12011 kPa | 81.35
